Reference: patent publication US8039490B2, “Benzoyl-piperidine derivatives as dual modulators of the 5-HT2A and D3 receptors” (Hoffmann-La Roche Inc., priority 2006, dated 2011)
“And” between values parts separate entries of the source, which are not always exact repeats. Equal values may be shown once.

Legend:
[1] = target: T1, human D3 dopamine receptor (Homo sapiens, UniProt P35462); assay: Radioligand binding, human D3 receptor ([3H]-spiperone); conditions: first value of the cell; membranes of transfected HEK-293 EBNA cells, 0.5 nM [3H]-spiperone; read-out: Ki(nM) D3/5HT2A/D2: D3
T1 construct: expressed in transfected cells; host or cells: HEK-293 EBNA cells (transient transfection), membrane preparation
T1 sequence (P35462 whole entry): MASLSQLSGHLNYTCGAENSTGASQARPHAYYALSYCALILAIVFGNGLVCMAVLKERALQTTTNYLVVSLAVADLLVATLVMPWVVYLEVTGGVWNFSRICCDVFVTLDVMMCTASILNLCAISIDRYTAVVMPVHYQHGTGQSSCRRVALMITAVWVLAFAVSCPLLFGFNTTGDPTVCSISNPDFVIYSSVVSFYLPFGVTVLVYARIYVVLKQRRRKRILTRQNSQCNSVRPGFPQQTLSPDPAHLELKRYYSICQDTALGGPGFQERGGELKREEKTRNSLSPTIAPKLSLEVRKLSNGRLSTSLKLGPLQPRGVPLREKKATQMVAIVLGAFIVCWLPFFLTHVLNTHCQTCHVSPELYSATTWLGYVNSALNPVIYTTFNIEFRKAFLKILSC
Experimental: (§1) The cells were harvested 48 h post-transfection, washed three times with cold PBS and stored at −80° C. prior to use. The pellet was suspended in cold 50 mM Tris-HCl buffer containing 10 mM EDTA (pH 7.4) and homogenized with a Polytron (Kinematica AG, Basel, Switzerland) for 20-30 sec at 12.000 rpm. After centrifugation at 48.000×g for 30 min at 4° C., the pellet was resuspended in cold 10 mM Tris-HCl buffer containing 0.1 mM EDTA (pH 7.4), homogenized, and centrifuged as above. This pellet was further resuspended in a smaller volume of ice cold 10 mM Tris-HCl buffer containing 0.1 mM EDTA (pH 7.4) and homogenized with a Polytron for 20-30 sec at 12.000 rpm. The protein content of this homogenate was determined with the Bio-Rad (Bradford) Protein Assay (Biorad Laboratories GmbH, München, Germany) according to the instructions of the manufacturer using gamma globulin as the standard. This homogenate was stored at −80° C. in aliquots and thawed immediately prior to use.
(§2) Aliquots of membrane preparations were thawed at RT, resupended in assay buffer (D2, D3: 50 mM Tris-HCl, 120 mM NaCl, 5 mM MgCl2, 1 mM EDTA, 5 mM KCl, 1.5 mM CaCl2, pH=7.4; 5-HT2A: 50 mM Tris-HCl, 10 mM MgCl2, 1 mM EGTA, pH=7.4), homogenized with a Polytron for 20-30 sec at 12.000 rpm and adjusted to a final concentration of approximately 7.5 μg protein/well (D2, D3) and 15 μg protein/well (5-HT2A), respectively.
(§3) The binding affinity (Ki) of the compounds was determined using radioligand binding. […] The nonspecific binding was determined with equally composed reaction mixtures in the presence of 10 μM unlabelled spiperone. Per well 45 μl of Microscint 40 (Perkin Elmer, Schwerzenbach, Switzerland) was added, plates for sealed, shaken for 20 min and counted for 3 min on a Topcount Microplate Scintillation Counter (Canberra Packard SA, Zürich, Switzerland) with quenching correction.
(§4) The CPM value for each duplicate of a concentration of competing compound was averaged (y1), then the % specific binding was calculated according to the equation (((y1−non-specific)/(total binding-non-specific))×100). Graphs were plotted with the % specific binding using XLfit, a curve fitting program that iteratively plots the data using Levenburg Marquardt algorithm. The single site competition analysis equation used was y=A+((B−A)/(+((x/C)^D))), where y is the % specific binding, A is the minimum y, B is the maximum y, C is the IC50, x is the log10 of the concentration of the competing compound and D is the slope of the curve (the Hill Coefficient). […] The affinity constant (Ki) was calculated using the Cheng-Prusoff equation KI =(IC50/1+([L]/Kd), where [L] is the concentration of radioligand and Kd is the dissociation constant of the radioligand at the receptor as determined by the saturation isotherm.

[2] = target: T2, human 5-HT2A serotonin receptor (Homo sapiens, UniProt P28223); assay: Radioligand binding, human 5-HT2A receptor ([3H]-ketanserin); conditions: second value of the cell; membranes of transfected HEK-293 EBNA cells, 1.1 nM [3H]-ketanserin; read-out: Ki(nM) D3/5HT2A/D2: 5HT2A
T2 construct: expressed in transfected cells; host or cells: HEK-293 EBNA cells (transient transfection), membrane preparation
T2 sequence (P28223 whole entry): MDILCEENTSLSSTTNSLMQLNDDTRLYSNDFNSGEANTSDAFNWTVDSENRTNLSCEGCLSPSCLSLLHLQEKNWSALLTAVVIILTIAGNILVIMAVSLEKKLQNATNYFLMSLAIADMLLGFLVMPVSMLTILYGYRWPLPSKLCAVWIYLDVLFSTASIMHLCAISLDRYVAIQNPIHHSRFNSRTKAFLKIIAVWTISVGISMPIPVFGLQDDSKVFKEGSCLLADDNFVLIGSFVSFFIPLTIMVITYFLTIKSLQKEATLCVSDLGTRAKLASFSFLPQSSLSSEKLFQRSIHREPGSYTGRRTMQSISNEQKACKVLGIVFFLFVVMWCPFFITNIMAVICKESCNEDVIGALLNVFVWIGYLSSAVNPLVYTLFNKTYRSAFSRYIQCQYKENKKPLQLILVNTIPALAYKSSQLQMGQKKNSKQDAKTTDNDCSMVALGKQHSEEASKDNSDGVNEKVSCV
Experimental: as §1, §2, §3, §4

[3] = target: T3, human D2 dopamine receptor (Homo sapiens, UniProt P14416); assay: Radioligand binding, human D2 receptor ([3H]-spiperone); conditions: third value of the cell; membranes of transfected HEK-293 EBNA cells, 0.7 nM [3H]-spiperone; read-out: Ki(nM) D3/5HT2A/D2: D2
T3 construct: expressed in transfected cells; host or cells: HEK-293 EBNA cells (transient transfection), membrane preparation
T3 sequence (P14416 whole entry): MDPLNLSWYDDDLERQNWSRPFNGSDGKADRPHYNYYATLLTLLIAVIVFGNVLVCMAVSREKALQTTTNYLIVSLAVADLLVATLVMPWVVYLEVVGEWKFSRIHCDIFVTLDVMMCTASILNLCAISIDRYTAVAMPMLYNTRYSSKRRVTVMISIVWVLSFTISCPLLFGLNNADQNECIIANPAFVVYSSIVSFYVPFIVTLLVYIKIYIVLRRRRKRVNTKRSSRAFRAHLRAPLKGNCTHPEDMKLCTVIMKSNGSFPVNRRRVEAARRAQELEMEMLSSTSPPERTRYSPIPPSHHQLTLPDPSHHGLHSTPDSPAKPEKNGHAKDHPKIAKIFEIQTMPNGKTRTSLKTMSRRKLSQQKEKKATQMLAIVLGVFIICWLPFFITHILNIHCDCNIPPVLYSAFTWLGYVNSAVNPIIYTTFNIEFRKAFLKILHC
Experimental: as §1, §2, §3, §4

Compound: 1-(4-Ethoxy-phenyl)-3-{4-[4-(4-fluoro-benzoyl)-piperidin-1-yl]-butyl}-urea [Example 70]
- Ki [1]: 97 nM
- Ki [2]: 22 nM
- Ki [3]: 2710 nM

Compound: O=C(NC[C@@H]1C[C@H]1CN1CCC(C(=O)c2ccc(F)cc2)CC1)Nc1ccc(Cl)cc1 (relative stereo) [Example 46, 1-(4-Chloro-phenyl)-3-{Trans-2-[4-(4-fluoro-benzoyl)-piperidin-1-ylmethyl]-cyclopropylmethyl}-urea]
- Ki [1]: 15 nM
- Ki [2]: 2 nM
- Ki [3]: 30 nM

Compound: O=C(N[C@H]1CC[C@H](CCN2CCC(C(=O)c3ccc(F)cc3F)CC2)CC1)C1CCOC1 (relative stereo) [Example 61, Tetrahydro-furan-3-carboxylic acid trans (4-{2-[4-(2,4-difluoro-benzoyl)-piperidin-1-yl]-ethyl}-cyclohexyl)-amide]
- Ki [1]: 35 nM
- Ki [2]: 64 nM
- Ki [3]: 2900 nM

Compound: O=C(N[C@H]1CC[C@H](CCN2CCC(C(=O)c3ccc(F)cc3)CC2)CC1)c1ccc(-n2cccc2)cc1 [Example 9]
- Ki [1]: 6 nM
- Ki [2]: 2 nM
- Ki [3]: 106 nM

Compound: CC(C)(C(=O)N[C@H]1CC[C@H](CCN2CCC(C(=O)c3ccc(F)cc3)CC2)CC1)c1ccc(Cl)cc1 [Example 14, 2-(4-Chloro-phenyl)-N-trans (4-{2-[4-(4-fluoro-benzoyl)-piperidin-1-yl]-ethyl}-cyclohexyl)-isobutyramide]
- Ki [1]: 144 nM
- Ki [2]: 12 nM
- Ki [3]: 96 nM

Compound: O=C(N[C@H]1CC[C@H](CCN2CCC(C(=O)c3ccc(F)cc3)CC2)CC1)c1ccnc2ncccc12 [Example 20, [1,8]Naphthyridine-4-carboxylic acid trans-(4-{2-[4-(4-fluoro-benzoyl)-piperidin-1-yl]-ethyl}-cyclohexyl)-amide]
- Ki [1]: 18 nM
- Ki [2]: 5 nM
- Ki [3]: 586 nM

Compound: O=C(N[C@H]1CC[C@H](CCN2CCC(C(=O)c3ccc(F)cc3)CC2)CC1)c1ccc(Cl)cc1Cl [Example 22, 2,4-Dichloro-N-trans (4-{2-[4-(4-fluoro-benzoyl)-piperidin-1-yl]-ethyl}-cyclohexyl)-benzamide]
- Ki [1]: 15 nM
- Ki [2]: 4 nM
- Ki [3]: 149 nM

Compound: O=C(N[C@H]1CC[C@H](CCN2CCC(C(=O)c3ccc(F)cc3)CC2)CC1)c1ccc(S(=O)(=O)c2ccc(Cl)cc2)cc1 [Example 23, 4-(4-Chloro-benzenesulfonyl)-N-trans (4-{2-[4-(4-fluoro-benzoyl)-piperidin-1-yl]-ethyl}-cyclohexyl)-benzamide]
- Ki [1]: 72 nM
- Ki [2]: 5 nM
- Ki [3]: 73 nM

Compound: CCOCCC(=O)N[C@H]1CC[C@H](CCN2CCC(C(=O)c3ccc(F)cc3)CC2)CC1 [Example 25, 3-Ethoxy-N-trans (4-{2-[4-(4-fluoro-benzoyl)-piperidin-1-yl]-ethyl}-cyclohexyl)-propionamide]
- Ki [1]: 13 nM
- Ki [2]: 269 nM
- Ki [3]: 777 nM

Compound: O=C(CC(F)(F)F)N[C@H]1CC[C@H](CCN2CCC(C(=O)c3ccc(F)cc3)CC2)CC1 [Example 26, 3,3,3-Trifluoro-N-trans-(4-{2-[4-(4-fluoro-benzoyl)-piperidin-1-yl]-ethyl}-cyclohexyl)-propionamide]
- Ki [1]: 17 nM
- Ki [2]: 14 nM
- Ki [3]: 684 nM

Compound: O=C(N[C@H]1CC[C@H](CCN2CCC(C(=O)c3ccc(F)cc3)CC2)CC1)C1CCCCC1 [Example 29, Cyclohexanecarboxylic acid trans-(4-{2-[4-(4-fluoro-benzoyl)-piperidin-1-yl]-ethyl}-cyclohexyl)-amide]
- Ki [1]: 32 nM and 37 nM
- Ki [2]: 8 nM
- Ki [3]: 450 nM

Compound: O=C(N[C@H]1CC[C@H](CCN2CCC(C(=O)c3ccc(F)cc3)CC2)CC1)c1ccc(N2CCOCC2)nn1 [Example 30A25, 6-Morpholin-4-yl-pyridazine-3-carboxylic acid trans (4-{2-[4-(4-fluoro-benzoyl)-piperidin-1-yl]-ethyl}-cyclohexyl)-amide]
- Ki [1]: 26 nM
- Ki [2]: 5 nM
- Ki [3]: 1280 nM

Compound: O=C(CCOc1ccccc1)N[C@H]1CC[C@H](CCN2CCC(C(=O)c3ccc(F)cc3)CC2)CC1 [Example 30A27, N-trans (4-{2-[4-(4-Fluoro-benzoyl)-piperidin-1-yl]-ethyl}-cydohexyl)-3-phenoxy-propionamide]
- Ki [1]: 8 nM
- Ki [2]: 8 nM
- Ki [3]: 1120 nM

Compound: O=C(C#Cc1ccccc1)N[C@H]1CC[C@H](CCN2CCC(C(=O)c3ccc(F)cc3)CC2)CC1 [Example 30A28, 3-Phenyl-propynoic acid trans (4-{2-[4-(4-fluoro-benzoyl)-piperidin-1-yl]-ethyl}-cyclohexyl)-amide]
- Ki [1]: 9 nM
- Ki [2]: 5 nM
- Ki [3]: 470 nM

Compound: CC(C)(CO)C(=O)N[C@H]1CC[C@H](CCN2CCC(C(=O)c3ccc(F)cc3)CC2)CC1 [Example 30A29, N-trans (4-{2-[4-(4-Fluoro-benzoyl)-piperidin-1-yl]-ethyl}-cyclohexyl)-3-hydroxy-2,2-dimethyl-propionamide]
- Ki [1]: 207 nM
- Ki [2]: 25 nM
- Ki [3]: 1010 nM

Compound: Cc1cc(CC(=O)N[C@H]2CC[C@H](CCN3CCC(C(=O)c4ccc(F)cc4)CC3)CC2)on1 [Example 30A36]
- Ki [1]: 26 nM
- Ki [2]: 5 nM
- Ki [3]: 1280 nM

Compound: COc1cc(CC(=O)N[C@H]2CC[C@H](CCN3CCC(C(=O)c4ccc(F)cc4)CC3)CC2)cc(OC)c1 [Example 30A37, 2-(3,5-Dimethoxy-phenyl)-N-trans (4-{2-[4-(4-fluoro-benzoyl)-piperidin-1-yl]-ethyl}-cyclohexyl)-acetamide]
- Ki [1]: 29 nM
- Ki [2]: 11 nM
- Ki [3]: 2000 nM

Compound: CC(=O)OCC(=O)N[C@H]1CC[C@H](CCN2CCC(C(=O)c3ccc(F)cc3)CC2)CC1 [Example 30A58, Acetic acid trans (4-{2-[4-(4-fluoro-benzoyl)-piperidin-1-yl]-ethyl}-cyclohexylcarbamoyl)-methyl ester]
- Ki [1]: 30 nM
- Ki [2]: 15 nM
- Ki [3]: 2070 nM

Compound: O=C(c1ccc(F)cc1)C1CCN(CC[C@H]2CC[C@H](NC(=O)C3(O)CC3)CC2)CC1 [Example 30A59, 1-Hydroxy-cyclopropanecarboxylic acid (trans-4-{2-[4-(4-fluoro-benzoyl)-piperidin-1-yl]-ethyl}-cyclohexyl)-amide]
- Ki [1]: 19 nM
- Ki [2]: 5 nM
- Ki [3]: 888 nM

Compound: COC(=O)N[C@H]1CC[C@H](CCN2CCC(C(=O)c3ccc(F)cc3)CC2)CC1 [Example 30A64, Trans (4-{2-[4-(4-Fluoro-benzoyl)-piperidin-1-yl]-ethyl}-cyclohexyl)-carbamic acid methyl ester]
- Ki [1]: 19 nM
- Ki [2]: 13 nM
- Ki [3]: 625 nM

Compound: O=C(N[C@H]1CC[C@H](CCN2CCC(O)(C(=O)c3ccccc3)CC2)CC1)c1ccnc2ccccc12 [Example 33, Quinoline-4-carboxylic acid trans-{4-[2-(4-benzoyl-4-hydroxy-piperidin-1-yl)-ethyl]-cyclohexyl}-amide]
- Ki [1]: 110 nM
- Ki [2]: 65 nM
- Ki [3]: 1980 nM

Compound: O=C(N[C@H]1CC[C@H](CCN2CCC(F)(C(=O)c3ccccc3)CC2)CC1)c1ccnc2ccccc12 [Example 34, Quinoline-4-carboxylic acid trans-{4-[2-(4-benzoyl-4-fluoro-piperidin-1-yl)-ethyl]-cyclohexyl}-amide]
- Ki [1]: 23 nM
- Ki [2]: 6 nM
- Ki [3]: 192 nM

Compound: Cc1ccc(NC(=O)N[C@H]2CC[C@H](CCN3CCC(C(=O)c4ccc(F)cc4)CC3)CC2)cc1 [Example 41, Trans-1-(4-{2-[4-(4-Fluoro-benzoyl)-piperidin-1-yl]-ethyl}-cyclohexyl)-3-p-tolyl-urea]
- Ki [1]: 4 nM
- Ki [2]: 11 nM
- Ki [3]: 677 nM
